Test results from patent US11389438B2 (CHDI Foundation, Inc., priority 2019, dated 2022).

Assays:
[1] = target: pre-formed polyQ46 or Exon1-polyQ46 aggregates (mHTT) (Homo sapiens, UniProt P42858, INS38QQQQQQQQQQQQQQQQQQQQQQQQQ); assay: Q46_RBA radioligand binding assay (displacement of [3H]-radioligand)
Procedure, shortened: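 Pre-formed polyQ46 or Exon1-polyQ46 aggregates, made by tag cleavage from GST- or MBP-fusion proteins, incubated with compounds competing against a [3H]-radioligand. Bound radioligand read by scintillation (MicroBeta); activity binned as +++ <100 nM, ++ 100-500 nM, + >500 nM.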

[2] = target: VHL complex (VHL, Elongin B, Elongin C, Cul2, Rbx1) (Homo sapiens (Human), UniProt P40337); assay: VHL SPR assay; assay type: binding; settings: immobilized VHL complex; read-out: VHL SPR Kd
Source text: Surface Plasmon Resonance (SPR) assays have been developed to test the affinity (KD) of VHL or CRBN-based compounds to respective recombinant ligase complex/domain.
The assays are based on surface plasmon resonance (SPR), which enables to measure the changes of the local refractive index due to changes of molecular mass on a gold chip surface in the case of a binding event and in a flowing system. To detect binding between both partners, the respective E3 ligase is immobilized to the chip surface, while the test compounds are flown over the chip surface at a steady velocity. The detected changes in the RU response are indicative of the binding event and are concentration dependent.
These tags provide the anchor for the capturing process to either an NTA or Streptavidin coated chip surface (immobilization level of 3,000-5,000 RU). Because of the rather complex structure of the VHL complex, it was additionally coupled to the chip surface by amino coupling to prevent any protein loss by disruption of the complex in the flowing system.
To detect binding of compounds and extract dissociation constants KD for the tested compounds to the immobilized E3 ligase, concentration response curves of the compounds were recorded. Compounds were usually tested in 10-pt dilutions up to 20 μM final concentration in assay buffer and were flown over the chip at 30 μL/min. The contact time for each cycle includes 90 s for association and 200 s for dissociation of compounds.
In the following tables, the Kd values are indicated as: +++, <100 nM; ++, 100-500 nM, +, >500 nM.

[3] = target: HTT-Exon1-Q73-EGFP in HeLa cells (soluble mHTT) (Homo sapiens (Human), UniProt P42858, INS38QQQQQQQQQQQQQQQQQQQQQQQQQQQQQQQQQQQQQQQQQQQQQQQQQQQQ); assay: HTT degradation assay, soluble mHTT MSD assay; assay type: cell-based; settings: HeLa cells transfected with Exon1-Q73-EGFP, 22 hr, 0.01-10 μM
Method: (§1) Compounds described herein were tested for efficacy in HTT-lowering in human HeLa cells transiently overexpressing HTT-Exon1-polyQn proteins. For HTT degradation experiments HeLa cells were transiently transfected with pcDNA3.1(+)-hHTT-E1mixQn-EGFP plasmids for transient expression of HTT-Exon1 proteins of different polyQ length (HTT-exon1-Q23/73/145-EGFP). Two hours after transfection the cells were treated with test compounds at 7 concentrations from 0.01 μM to 10 μM (final assay concentration)+DMSO control. After a 22 hr incubation with test compounds the cells were washed with 1×PBS and lysed in MSD lysis buffer (150 mM NaCl; 20 mM Tris ph 7.5; 1 mM EDTA, 1 mM EGTA; 1% Triton X-100, 1× Phosphatase Inh. Cocktail 2, 1× Phosphatase Inh. Cocktail 3, 1× Protease Inh. Cocktail, 10 mM NaF, 1 mM PMSF) for 30 min on ice. […]
(§2) After an additional washing step, 10 μL per sample were transferred to each well of the antibody-coated MSD plate and incubated with shaking for 1 h at RT. […] After washing three times with washing buffer, 35 μL of read buffer T with surfactant (Meso Scale Discovery) were added to each well. […] The obtained readout is the MSD signal intensity for each well. […]

[4] = target: HTT-Exon1-Q73-EGFP in HeLa cells (aggregated HTT) (Homo sapiens (Human), UniProt P42858, INS38QQQQQQQQQQQQQQQQQQQQQQQQQQQQQQQQQQQQQQQQQQQQQQQQQQQQ); assay: HTT degradation assay, aggregated HTT MSD assay; assay type: cell-based; settings: HeLa cells transfected with Exon1-Q73-EGFP, 22 hr, 0.01-10 μM
Method: as §1, §2

Sequence of VHL complex (VHL, Elongin B, Elongin C, Cul2, Rbx1) (P40337 whole entry, looked up): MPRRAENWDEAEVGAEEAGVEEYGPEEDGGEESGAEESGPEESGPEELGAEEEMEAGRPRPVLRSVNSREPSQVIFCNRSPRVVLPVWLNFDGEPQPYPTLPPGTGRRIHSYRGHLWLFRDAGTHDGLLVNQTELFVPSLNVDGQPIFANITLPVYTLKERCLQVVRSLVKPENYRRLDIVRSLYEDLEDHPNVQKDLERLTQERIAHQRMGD
Sequence of VHL complex (VHL, Elongin B, Elongin C, Cul2, Rbx1) (Q15370 whole entry partner, looked up): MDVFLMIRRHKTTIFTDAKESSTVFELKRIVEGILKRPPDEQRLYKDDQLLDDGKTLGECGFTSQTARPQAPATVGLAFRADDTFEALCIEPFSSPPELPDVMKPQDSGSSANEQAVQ
Sequence of VHL complex (VHL, Elongin B, Elongin C, Cul2, Rbx1) (Q15369 whole entry partner, looked up): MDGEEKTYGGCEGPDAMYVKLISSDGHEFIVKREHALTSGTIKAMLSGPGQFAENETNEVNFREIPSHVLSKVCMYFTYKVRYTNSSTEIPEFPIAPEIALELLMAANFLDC
Sequence of VHL complex (VHL, Elongin B, Elongin C, Cul2, Rbx1) (Q13617 whole entry partner, looked up): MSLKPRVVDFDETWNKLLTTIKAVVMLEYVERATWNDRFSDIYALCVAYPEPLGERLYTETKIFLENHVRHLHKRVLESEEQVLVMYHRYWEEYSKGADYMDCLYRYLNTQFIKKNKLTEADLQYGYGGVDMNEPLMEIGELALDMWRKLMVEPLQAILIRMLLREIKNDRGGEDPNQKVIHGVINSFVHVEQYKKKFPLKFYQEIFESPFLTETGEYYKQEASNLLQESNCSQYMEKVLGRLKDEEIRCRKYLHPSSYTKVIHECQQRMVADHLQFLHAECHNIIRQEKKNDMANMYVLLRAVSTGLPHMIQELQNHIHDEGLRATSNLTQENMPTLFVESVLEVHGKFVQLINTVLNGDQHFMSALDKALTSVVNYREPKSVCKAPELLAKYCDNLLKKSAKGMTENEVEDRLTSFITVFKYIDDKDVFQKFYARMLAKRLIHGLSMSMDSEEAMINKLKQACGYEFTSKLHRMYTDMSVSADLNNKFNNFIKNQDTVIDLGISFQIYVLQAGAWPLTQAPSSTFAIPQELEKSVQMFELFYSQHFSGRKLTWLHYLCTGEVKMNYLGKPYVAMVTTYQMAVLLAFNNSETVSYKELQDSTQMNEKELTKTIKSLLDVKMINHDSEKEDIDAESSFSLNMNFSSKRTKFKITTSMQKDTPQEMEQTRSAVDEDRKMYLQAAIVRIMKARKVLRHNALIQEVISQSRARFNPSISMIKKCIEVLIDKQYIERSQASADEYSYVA
Sequence of VHL complex (VHL, Elongin B, Elongin C, Cul2, Rbx1) (P62877 whole entry partner, looked up): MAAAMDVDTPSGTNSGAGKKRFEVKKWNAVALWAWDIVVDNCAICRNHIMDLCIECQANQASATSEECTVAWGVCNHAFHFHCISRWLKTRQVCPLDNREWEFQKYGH
Sequence of HTT-Exon1-Q73-EGFP in HeLa cells (aggregated HTT) (P42858 other isoform, or with tags, fused parts or gaps limits assumed, stated change not applied): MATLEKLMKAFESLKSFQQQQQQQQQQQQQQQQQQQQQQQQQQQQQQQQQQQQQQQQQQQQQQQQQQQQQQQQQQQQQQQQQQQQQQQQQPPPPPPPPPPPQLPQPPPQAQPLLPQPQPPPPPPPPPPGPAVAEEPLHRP
Sequence of HTT-Exon1-Q73-EGFP in HeLa cells (soluble mHTT) (P42858 other isoform, or with tags, fused parts or gaps limits assumed, stated change not applied): as above

With `CNc1c(-c2cn3c(n2)sc2cc(OCCOCC(=O)N[C@H](C(=O)N4C[C@H](O)C[C@H]4C(=O)NCc4ccc(-c5scnc5C)cc4)C(C)(C)C)ccc23)nc2cc(C#N)ccn12` [Compound 1] the IC50 [1] was under 100 nM, the Kd [2] was 100 to 500 nM and the “Reduction of soluble mHTT Exon1-Q73 levels” value [3] was “confirmed”. The “Reduction of aggregated mHTT Exon1-Q73 levels” value [4] was “confirmed”.
